{"source": "patent US20260174780A1", "about": "“BISMUTH-THIOL COMPOSITIONS AND METHODS FOR TREATING INFLAMMATORY DISEASES” (Microbion Corporation, priority 2022, published 2026)", "key": {"[1]": {"test_system": "FITC-induced contact hypersensitivity", "assay": "FITC-induced contact hypersensitivity in mice (ear swelling, histopathology, ear cytokines)", "format": "in vivo, BALB/c mice", "conditions": "Group 3, 1 mg/mL topical; mean ± standard deviation", "procedure": "Protocol: Male BALB/c mice at 8 weeks old are used in the study.\nAll animals, except those in Group 1 (Sham), were sensitized topically (TOP) on the shaved abdominal skin with 200 μL of 0.5% Fluorescein Isothiocyanate (FITC) dissolved in 20% tributyrin in acetone on Days 1 and 2. On Day 7, animals were challenged by applying 20 μL of 0.5% FITC solution onto both sides of the right ear. Animals in Group 1 received nothing.\nVehicle, BisEDT test articles and reference compound (tacrolimus) were administered topically (TOP) once daily (QD) from Day 6 to Day 9 for 4 consecutive days (1 hour before FITC challenge on Day 7). The vehicle for BisEDT was phosphate-buffered saline (PBS).\n• 2.5 mg/mL BisEDT topical suspension • 1.25 mg/mL BisEDT topical suspension—prepared as a 1:1 dilution of 2.5 mg/mL BisEDT topical suspension in sterile water and vortexed to ensure homogeneity\nAnalysis: Ear swelling was measured by an experimenter blinded to treatment group, with a dial thickness micrometer gauge as an index of inflammation 30 min before dosing on Days 7, 8, 9 and 10. On Day 10, ear swelling was measured at 24 hours after the last dosing. Ear edema was calculated by subtracting the thickness of Day 7 (normal control) from Day n (treated ear). Percentage inhibition was calculated according to the formula: (Ic−It)/Ic×100, where Ic and It refer to the increase of ear thickness (mm) both in the control and treated animals. Body weight was recorded daily during the study period.\nThe animals were sacrificed on Day 10 and the ears were then harvested and weighed. Half of the right ear was fixed in 10% formalin for histopathology, and the other half was processed for cytokine measurement (IL-18, IL-6, and IL-10) using ThermoFisher Mouse ProcartaPlex Kit by Luminex."}, "[2]": {"test_system": "lung tissue of M. abscessus infected mice", "assay": "Lung histopathology in chronic M. abscessus infection study", "format": "in vivo, SCID/Beige mice", "conditions": "amikacin-treated (100 mg/kg/day), FIG. 5B", "procedure": "After 28 days of treatment with BisEDT, animals were euthanized by CO2 and secondary cardiac puncture to collect whole blood for quantitation of BisEDT concentration. Lungs and spleens from the CFU mice were homogenized with 1:1 H2O:Dey-Englev neutralizing broth to deactivate BisEDT. CFUs were determined after serial dilution. Mice for histology and the lung pair split, one half in formalin the other half weighed and snap frozen in liquid N2 to determine tissue concentration of BisEDT.\nSamples for histology were processed by the Veterinary Diagnostic Laboratory. Slides were stained with hematoxylin-eosin (HE stain) for general pathology as well as a slide for acid-fast stain to highlight the mycobacterial infection in lung tissue."}, "Hypo-InflammaSkin models": {"test_system": "Hypo-InflammaSkin models", "assay": "Ex vivo human skin model of psoriasis (Hypo-InflammaSkin), cytokine release in culture medium", "format": "cell-based", "conditions": "betamethasone 0.05% topical 25 μL daily Day 0-6", "excerpt": "Background: InflammaSkin® model is a validated psoriasis-like model developed to reproduce key features of pro-Th17/Th1 inflammation associated with psoriasis. It relies on the in situ activation of resident T-cell of normal skin biopsies and their further polarization into Th17/Th1 phenotype with the supplementation of culture medium with a cocktail of pro-inflammatory cytokines.\nModel production and culture: 2 HypoSkin models of 15 mm in diameter (1.76 cm^2) were produced from 1 donor and cultured with 2 mL standard HypoSkin® medium. 20 Hypo-InflammaSkin models were produced from 1 donor by inducing in sit activation and Th17/Th1 polarization of skin resident T cells with proprietary cocktail and cultured with 2 mL Hypo-InflammaSkin® culture medium. The total treatable surface area of the models was 113 mm^2, and dosing of BisEDT took this into account based on dosing of the topical treatment. Models were maintained in standard cell culture conditions for the whole culture duration at 37° C., 5% CO2 and water saturation, with appropriate culture medium renewed every day.\nTreatment Groups: Model Treatment: (1) HypoSkin® untreated control; (2) Hypo-InflammaSkin® untreated control; (3) topical betamethasone (positive control); (4) topical BisEDT—2.5 mg/mL (treatment applied every day from day 0 to 6; (5) topical BisEDT—1.25 mg/mL (treatment applied every day from day 3 to 6). N=3 per treatment group, except N=5 for Hypo-InflammaSkin® and N=1 for HypoSkin®.\nTopical Treatment—Betamethasone (control): 25 μL of betamethasone was topically applied onto the surface of each skin model. Topical application was performed from Day 0 to Day 6 after removal of the previous treatment residues using a cotton swab.\nTopical Treatment—BisEDT: 36 μL of the test compound was topically applied onto the surface of each skin model, massaging across the entire surface area for 1 minute, using a parafilm wrapped cotton swab; the compound was left on the skin. Topical application was performed from Day 0 to Day 6 (Treatment Group 4) or Day 3 to Day 6 (Treatment Group 5). A total of 9 models were topically treated.\nCulture Media—culture media was collected on Day 3 prior to treatment application and on Day 7 and frozen at −80° C. A total of 42 culture media samples were collected.\nIL-22 release: IL-22 release was measured in culture media using ELISA Human IL-22 Quantikine Kit (Bio-techne, ref D2200). Only samples from control conditions 1 to 3 were analyzed to assess donor's response to T cell activation. Each sample was analyzed in duplicate.\nMSD Immunoassay—cytokine release (IL-2, IL-13, IL-15, IL-17A, IL-22, TNF-α, INF-γ, MIP-1β, and […]) in the culture medium was measured using the V-PLEX Plus Human Cytokine Kit (KI5089G, MesoScale Discovery) (FIGS. 13D-13S)."}}, "data": [{"smiles": "C=CC[C@@H]1/C=C(\\C)C[C@H](C)C[C@H](OC)[C@H]2O[C@@](O)(C(=O)C(=O)N3CCCC[C@H]3C(=O)O[C@H](/C(C)=C/[C@@H]3CC[C@@H](O)[C@H](OC)C3)[C@H](C)[C@@H](O)CC1=O)[C@H](C)C[C@@H]2OC", "note": "[Tacrolimus, tacrolimus]", "values": [{"measurement": "Hyperkeratosis (lesion score)", "setting": "[1]", "result": "0.88 ± 0.64"}, {"measurement": "Hyperplasia (lesion score)", "setting": "[1]", "result": "1.63 ± 0.52"}, {"measurement": "Inflammation (lesion score)", "setting": "[1]", "result": "1.38 ± 0.52"}, {"measurement": "Necrosis (lesion score)", "setting": "[1]", "result": "0.13 ± 0.35"}, {"measurement": "Total histological score", "setting": "[1]", "result": "4.00 ± 1.69"}]}, {"smiles": "NCC[C@H](O)C(=O)N[C@@H]1C[C@H](N)[C@@H](O[C@H]2O[C@H](CN)[C@@H](O)[C@H](O)[C@H]2O)[C@H](O)[C@H]1O[C@H]1O[C@H](CO)[C@@H](O)[C@H](N)[C@H]1O", "note": "[amikacin, reference compound]", "values": [{"measurement": "lung histomorphologic observation", "setting": "[2]", "result": "infiltration of mononuclear phagocytes, interstitial edema, and interstitial hemorrhage"}]}, {"smiles": "C[C@H]1C[C@H]2[C@@H]3CCC4=CC(=O)C=C[C@]4(C)[C@@]3(F)[C@@H](O)C[C@]2(C)[C@@]1(O)C(=O)CO", "note": "[betamethasone, reference compound]", "values": [{"measurement": "IL-22 release, average concentration (ELISA)", "setting": "Hypo-InflammaSkin models", "result": 16.67, "unit": "µg/mL"}]}]}
